Test results published in PMC4604124, “In Vitro Characterization of the Pharmacological Properties of the Anti-Cancer Chelator, Bp4eT, and Its Phase I Metabolites” (PLoS ONE, 2015).
Several values for one entry are separate records, joined by “and”; a condition that tells them apart may be missing. Equal entries are not always repeated.

Columns and labels:
LC3-II = assay: Western blot and densitometry of LC3-I/II (autophagy); format: cell-based, human; settings: for LC3-II levels compared to the control: agent alone; for densitometry WB, relative to NT = 1: single blot
From the text: Established protocols were used to prepare cell lysates and perform immunoblot analysis. Primary antibodies used include: rabbit LC3 (Cat. #: MBPM036; 1:2,000) from Abacus (Brisbane, Australia) and mouse β-actin (Cat. #: A1978, 1:10,000) from Sigma-Aldrich. The following secondary antibodies were utilized: horseradish peroxidase (HRP)-conjugated anti-rabbit (Cat. #: A6154, […]) and anti-mouse (Cat. #: A4416, 1:10,000) antibodies from Sigma-Aldrich. To ensure equal loading of proteins, membranes were probed for β-actin.

[1] = Ascorbate oxidation assay (redox activity of iron complexes); format: biochemical; settings: for %Fe 30min: ascorbate oxidation as % of the Fe control (Fe 100%): IBE 0.1, 30 min;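 as to %Fe 30min (ascorbate oxidation, Fe 100%), průměr: IBE 3 means excess free chelator over iron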;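 as to %Fe 30min (ascorbate oxidation, Fe 100%): IBE 3 means excess free chelator over iron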;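 as to %Fe 30min: ascorbate oxidation as % of the Fe control (Fe 100%): IBE 0.1 means iron-binding equivalents with iron in excess over chelator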;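 as to Change of absorbance, odečet 0 (time 0 subtracted), čas 10, průměr: IBE 3 means excess free chelator over 10 µM FeCl3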;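 as to Change of absorbance, odečet 0 (time 0 subtracted), čas 10: IBE 3 means excess free chelator over 10 µM FeCl3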
Experimental: The ascorbate oxidation assay was used to assess the redox activity of the iron complexes of the chelators using an established protocol. In brief, 100 μM ascorbic acid was prepared immediately prior to the experiment and incubated either alone or in the presence of 10 μM FeCl3 in a 50-fold molar excess (500 μM) of citrate and the chelators. Chelators were assayed at iron-binding equivalents (IBE) of 0.1 (excess of iron), 1 (fully coordinated iron—chelator complexes) and 3 (excess of free chelator). […] The decrease of absorbance between the two time points was calculated and expressed as a percentage of control without the chelator.

[2] = 72 h/37°C, MCF-7, Bp4eT 10 and 100 nM, Dp44mT 100 nM, Baf A1 100 nM
[3] = Supplementary Fig 2, Baf+ NT (Baf alone)
[4] = Supplementary Fig 2, Baf+, 10nM
[5] = Supplementary Fig 2, Baf+, 5uM (5M [sic] for Bp4eT)
[6] = sheet IBE 1, time 10, replicates
[7] = sheet IBE 1, time 20, replicates
[8] = sheet IBE 1, time 30, replicates

CO/C1=C\C(C)=C\[C@@H](C)[C@@H](O)[C@@H](C)C/C(C)=C/C=C/[C@H](OC)[C@@H]([C@@H](C)[C@@H](O)[C@H](C)[C@@]2(O)C[C@@H](O)[C@H](C)[C@@H](C(C)C)O2)OC1=O [Baf A1, Bafilomycin A1, reference compound]
LC3-II levels compared to the control (LC3-II; [2]): marked and significant (p < 0.001) increase

CO/C1=C\C(C)=C\[C@@H](C)[C@@H](O)[C@@H](C)C/C(C)=C/C=C/[C@H](OC)[C@@H]([C@@H](C)[C@@H](O)[C@H](C)[C@@]2(O)C[C@@H](O)[C@H](C)[C@@H](C(C)C)O2)OC1=O [Baf]
densitometry WB, relative to NT = 1, Average (LC3-II; Fig 7E, Baf alone): 452.435
densitometry WB, relative to NT = 1 (LC3-II; Fig 7E, Baf alone): 493.767 and 401.641 and 461.896
densitometry WB, relative to NT = 1, Average (LC3-II; [3]): 120.681
densitometry WB, relative to NT = 1 (LC3-II; [3]): 125.194 and 89.4619 and 147.387

CN(C)C(=S)NN=C(c1ccccn1)c1ccccn1 [Dp44mT, di-2-pyridylketone 4,4-dimethyl-3-thiosemicarbazone, reference compound]
LC3-II with Baf A1 relative to Baf A1 and control (LC3-II; 24 h/37°C, MCF-7, agent 5 μM, Baf A1 100 nM): significant (p < 0.05) increase
LC3II expression with Baf A1 relative to Baf A1 and control (LC3-II; 24 h/37°C, MCF-7, agent 10 and 100 nM, Baf A1 100 nM): did not lead to a significant (p > 0.05) increase
LC3-II levels upon co-incubation with Baf A1, compared to Baf A1 alone (LC3-II; 72 h/37°C, MCF-7, Baf A1 100 nM, Bp4eT 10 and 100 nM, Dp44mT 100 nM): significant (p < 0.001–0.05) suppression
densitometry WB, relative to NT = 1, Average (LC3-II; Fig 7E, 100nM): 4.573
densitometry WB, relative to NT = 1, Average (LC3-II; Supplementary Fig 2, 10nM): 1.013
densitometry WB, relative to NT = 1, Average (LC3-II; Supplementary Fig 2, 100nM): 0.7153
densitometry WB, relative to NT = 1, Average (LC3-II; Supplementary Fig 2, 5uM (5M [sic] for Bp4eT)): 2.9502
densitometry WB, relative to NT = 1, Average (LC3-II; [4]): 97.312
densitometry WB, relative to NT = 1 (LC3-II; [4]): 76.4364 and 79.3437 and 136.156
densitometry WB, relative to NT = 1, Average (LC3-II; Supplementary Fig 2, Baf+, 100nM): 73.568
densitometry WB, relative to NT = 1, Average (LC3-II; [5]): 249.127
densitometry WB, relative to NT = 1 (LC3-II; [5]): 275.571 and 204.438 and 267.371
LC3-II levels compared to the control (LC3-II; [2]): slight, but significant (p < 0.05) increase

O=C(O)CN(CCN(CC(=O)O)CC(=O)O)CC(=O)O [EDTA, reference compound]
Ascorbate oxidation, % of the control ([1]; IBE 0.1): 161%
%Fe 30min: ascorbate oxidation as % of the Fe control (Fe 100%) ([1]; mean (průměr)): 160.9%
%Fe 30min: ascorbate oxidation as % of the Fe control (Fe 100%) ([1]; single wells): 159.4% and 155.2% and 146.4% and 180.8% and 176.8% and 168.8%
Change of absorbance after subtraction of time 0 (odečet 0) ([1]; IBE 0.1, time 10, mean (průměr)): -0.05129
Change of absorbance after subtraction of time 0 (odečet 0) ([1]; IBE 0.1, time 20, mean (průměr)): -0.1014
Change of absorbance after subtraction of time 0 (odečet 0) ([1]; IBE 0.1, time 30, mean (průměr)): -0.1524
Absorbance (ascorbate, λ = 265 nm) ([1]; IBE 0.1, čas 0 (time 0), mean (průměr)): 0.8103
Absorbance (ascorbate, λ = 265 nm) ([1]; IBE 0.1, čas 0 (time 0), single wells): 0.8054 and 0.8016 and 0.8149 and 0.8186 and 0.808 and 0.8024
Absorbance (ascorbate, λ = 265 nm) ([1]; IBE 0.1, čas 10 (time 10), mean (průměr)): 0.759
Absorbance (ascorbate, λ = 265 nm) ([1]; IBE 0.1, čas 10 (time 10), single wells): 0.7602 and 0.7682 and 0.7617 and 0.7478 and 0.7502 and 0.7523
Absorbance (ascorbate, λ = 265 nm) ([1]; IBE 0.1, čas 20 (time 20), mean (průměr)): 0.7088
Absorbance (ascorbate, λ = 265 nm) ([1]; IBE 0.1, čas 20 (time 20), single wells): 0.708 and 0.7209 and 0.713 and 0.6947 and 0.6986 and 0.7025
Absorbance (ascorbate, λ = 265 nm) ([1]; IBE 0.1, čas 30 (time 30), mean (průměr)): 0.6579
Absorbance (ascorbate, λ = 265 nm) ([1]; IBE 0.1, čas 30 (time 30), single wells): 0.6595 and 0.6673 and 0.6654 and 0.6401 and 0.6465 and 0.65
Ascorbate oxidation, % of the control ([1]; IBE 1): 417%
Ascorbate oxidation, % of the control ([1]; IBE 3): 427%
%Fe 30min (ascorbate oxidation, Fe = 100%), průměr (mean) ([1]; sheet IBE 1, 30min, Fe 100%, mean): 416.7%
%Fe 30min (ascorbate oxidation, Fe = 100%), single replicates ([1]; sheet IBE 1, 30min, Fe 100%, replicates): 441% and 427.1% and 415.6% and 401.4% and 393.2% and 387.9%
raw reading at čas 0 (time 0), průměr (mean) ([1]; sheet IBE 1, time 0, mean of 9 readings): 0.6818
raw reading at čas 0 (time 0), single replicates ([1]; sheet IBE 1, time 0, replicates of 2014-03-24 (two runs) and 2014-03-25): 0.698 and 0.6881 and 0.6774 and 0.6781 and 0.6723 and 0.6948
odečet 0 (reading minus time 0 reading) at čas 10, průměr (mean) ([1]; sheet IBE 1, time 10, mean): -0.1456
raw reading at čas 10 (time 10), průměr (mean) ([1]; sheet IBE 1, time 10, mean of 9 readings): 0.5362
odečet 0 (reading minus time 0 reading) at čas 10, single replicates [1, 6]: -0.1492 and -0.1466 and -0.1396 and -0.1522 and -0.1449 and -0.1427
raw reading at čas 10 (time 10), single replicates [1, 6]: 0.5282 and 0.5314 and 0.5326 and 0.5426 and 0.5531 and 0.5454
odečet 0 (reading minus time 0 reading) at čas 20, průměr (mean) ([1]; sheet IBE 1, time 20, mean): -0.2713
raw reading at čas 20 (time 20), průměr (mean) ([1]; sheet IBE 1, time 20, mean of 9 readings): 0.4105
odečet 0 (reading minus time 0 reading) at čas 20, single replicates [1, 7]: -0.2803 and -0.2685 and -0.2607 and -0.2802 and -0.2739 and -0.2684
raw reading at čas 20 (time 20), single replicates [1, 7]: 0.3971 and 0.4095 and 0.4115 and 0.4146 and 0.424 and 0.4197
odečet 0 (reading minus time 0 reading) at čas 30, průměr (mean) ([1]; sheet IBE 1, time 30, mean): -0.3705
raw reading at čas 30 (time 30), průměr (mean) ([1]; sheet IBE 1, time 30, mean of 9 readings): 0.3114
odečet 0 (reading minus time 0 reading) at čas 30, single replicates [1, 8]: -0.381 and -0.369 and -0.359 and -0.3788 and -0.3711 and -0.366
raw reading at čas 30 (time 30), single replicates [1, 8]: 0.2963 and 0.3091 and 0.3132 and 0.316 and 0.3269 and 0.322
%Fe 30min (ascorbate oxidation, Fe 100%), průměr ([1]; sheet IBE 3, 30min, Fe alone = 100%, mean (průměr) of the 9 replicates): 426.7%
%Fe 30min (ascorbate oxidation, Fe 100%) ([1]; sheet IBE 3, 30min, Fe alone = 100%, single replicates): 442% and 427.3% and 421.9% and 434.5% and 414.3% and 409.1%
Change of absorbance, odečet 0 (time 0 subtracted), čas 10, průměr ([1]; sheet IBE 3, time 10 minus time 0, mean (průměr)): -0.1585
Change of absorbance, odečet 0 (time 0 subtracted), čas 10 ([1]; sheet IBE 3, time 10 minus time 0, single replicates): -0.1642 and -0.1578 and -0.1558 and -0.1617 and -0.1557 and -0.1533
Change of absorbance, odečet 0 (time 0 subtracted), čas 20, průměr ([1]; sheet IBE 3, time 20 minus time 0, mean (průměr)): -0.2896
Change of absorbance, odečet 0 (time 0 subtracted), čas 20 ([1]; sheet IBE 3, time 20 minus time 0, single replicates): -0.3027 and -0.2894 and -0.2865 and -0.2919 and -0.2818 and -0.2751
Change of absorbance, odečet 0 (time 0 subtracted), čas 30, průměr ([1]; sheet IBE 3, time 30 minus time 0, mean (průměr)): -0.3943
Change of absorbance, odečet 0 (time 0 subtracted), čas 30 ([1]; sheet IBE 3, time 30 minus time 0, single replicates): -0.4103 and -0.3966 and -0.3916 and -0.3977 and -0.3792 and -0.3744
